How the values were obtained:
Test in all cases: relative viability (nuclei count vs DMSO), 5 days (fraction); higher = more cells survive
BEN = test system: BEN
Summary of the method: (§1)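 Dosing by pin tool came one day after lung cancer cell lines were seeded in 1536-well plates, using either one drug or a fixed anchor-drug dose plus five library-drug doses (not always all listed) in √10 steps. After 5 days, nuclei were counted on 4× images. Relative viability is treated-well nuclei count divided by vehicle-well nuclei count, and values are medians of duplicate plates.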

LK-2 = test system: LK-2
Summary of the method: as §1

SW 1573 = test system: SW 1573
Summary of the method: as §1

ChaGo-K-1 = test system: ChaGo-K-1
Summary of the method: as §1

HCC-78 = test system: HCC-78
Summary of the method: as §1

EKVX = test system: EKVX
Summary of the method: as §1

NCI-H2087 = test system: NCI-H2087
Summary of the method: as §1

HCC-827 = test system: HCC-827
Summary of the method: as §1

EPLC-272H = test system: EPLC-272H
Summary of the method: as §1

NCI-H358 = test system: NCI-H358
Summary of the method: as §1

LU99A = test system: LU99A
Summary of the method: as §1

NCI-H727 = test system: NCI-H727
Summary of the method: as §1

NCI-H1944 = test system: NCI-H1944
Summary of the method: as §1

LOU-NH91 = test system: LOU-NH91
Summary of the method: as §1

EMC-BAC-2 = test system: EMC-BAC-2
Summary of the method: as §1

RERF-LC-KJ = test system: RERF-LC-KJ
Summary of the method: as §1

NCI-H1650 = test system: NCI-H1650
Summary of the method: as §1

COR-L 105 = test system: COR-L 105
Summary of the method: as §1

NCI-H1734 = test system: NCI-H1734
Summary of the method: as §1

LCLC-97TM1 = test system: LCLC-97TM1
Summary of the method: as §1

SK-MES-1 = test system: SK-MES-1
Summary of the method: as §1

NCI-H2126 = test system: NCI-H2126
Summary of the method: as §1

SMILES: O=c1[nH]c2ccccc2n1C1CCN(CCCC(c2ccc(F)cc2)c2ccc(F)cc2)CC1 [Pimozide] + COc1cc2c(Oc3ccc(NC(=O)C4(C(=O)Nc5ccc(F)cc5)CC4)cc3F)ccnc2cc1OCCCN1CCOCC1 [Foretinib] (partner 0.25 µM)
- relative viability (BEN; first compound 0.08 µM): 0.624
- relative viability (BEN; first compound 0.253 µM): 0.768
- relative viability (BEN; first compound 0.8 µM): 0.618
- relative viability (BEN; first compound 2.53 µM): 0.581
- relative viability (BEN; first compound 8 µM): 0.783
- relative viability (LK-2; first compound 0.08 µM): 1.65
- relative viability (LK-2; first compound 0.253 µM): 0.98
- relative viability (LK-2; first compound 2.53 µM): 0.875
- relative viability (LK-2; first compound 8 µM): 1.24
- relative viability (SW 1573; first compound 0.08 µM): 0.803
- relative viability (SW 1573; first compound 0.253 µM): 0.946
- relative viability (SW 1573; first compound 0.8 µM): 0.86
- relative viability (SW 1573; first compound 2.53 µM): 0.892
- relative viability (SW 1573; first compound 8 µM): 1.04
- relative viability (ChaGo-K-1; first compound 0.08 µM): 0.937
- relative viability (ChaGo-K-1; first compound 0.253 µM): 0.899
- relative viability (ChaGo-K-1; first compound 0.8 µM): 0.879
- relative viability (ChaGo-K-1; first compound 2.53 µM): 0.811
- relative viability (ChaGo-K-1; first compound 8 µM): 0.908
- relative viability (HCC-78; first compound 0.08 µM): 0.536
- relative viability (HCC-78; first compound 0.8 µM): 0.482
- relative viability (HCC-78; first compound 2.53 µM): 0.564
- relative viability (HCC-78; first compound 8 µM): 0.573
- relative viability (EKVX; first compound 0.08 µM): 0.196
- relative viability (EKVX; first compound 0.253 µM): 0.827
- relative viability (EKVX; first compound 0.8 µM): 0.764
- relative viability (EKVX; first compound 2.53 µM): 0.747
- relative viability (EKVX; first compound 8 µM): 0.908
- relative viability (NCI-H2087; first compound 0.08 µM): 1.21
- relative viability (NCI-H2087; first compound 0.253 µM): 0.984
- relative viability (NCI-H2087; first compound 2.53 µM): 1.17
- relative viability (NCI-H2087; first compound 8 µM): 1.09
- relative viability (HCC-827; first compound 0.253 µM): 1.01
- relative viability (HCC-827; first compound 0.8 µM): 0.915
- relative viability (HCC-827; first compound 2.53 µM): 0.967
- relative viability (HCC-827; first compound 8 µM): 0.904
- relative viability (EPLC-272H; first compound 0.08 µM): 0.631
- relative viability (EPLC-272H; first compound 0.253 µM): 0.667
- relative viability (EPLC-272H; first compound 0.8 µM): 0.539
- relative viability (EPLC-272H; first compound 2.53 µM): 0.175
- relative viability (EPLC-272H; first compound 8 µM): 0.567
- relative viability (NCI-H358; first compound 0.08 µM): 0.671
- relative viability (NCI-H358; first compound 0.253 µM): 0.661
- relative viability (NCI-H358; first compound 0.8 µM): 0.578
- relative viability (NCI-H358; first compound 2.53 µM): 0.562
- relative viability (NCI-H358; first compound 8 µM): 0.695
- relative viability (LU99A; first compound 0.08 µM): 0.872
- relative viability (LU99A; first compound 0.253 µM): 0.756
- relative viability (LU99A; first compound 0.8 µM): 0.922
- relative viability (LU99A; first compound 2.53 µM): 0.84
- relative viability (LU99A; first compound 8 µM): 0.922
- relative viability (NCI-H727; first compound 0.08 µM): 0.679
- relative viability (NCI-H727; first compound 0.253 µM): 0.87
- relative viability (NCI-H727; first compound 0.8 µM): 0.798
- relative viability (NCI-H727; first compound 2.53 µM): 0.722
- relative viability (NCI-H727; first compound 8 µM): 0.782
- relative viability (NCI-H1944; first compound 0.08 µM): 0.901
- relative viability (NCI-H1944; first compound 0.253 µM): 0.891
- relative viability (NCI-H1944; first compound 0.8 µM): 0.807
- relative viability (NCI-H1944; first compound 2.53 µM): 0.735
- relative viability (NCI-H1944; first compound 8 µM): 0.817
- relative viability (LOU-NH91; first compound 0.08 µM): 0.586
- relative viability (LOU-NH91; first compound 0.253 µM): 0.743
- relative viability (LOU-NH91; first compound 0.8 µM): 0.879
- relative viability (LOU-NH91; first compound 2.53 µM): 0.944
- relative viability (LOU-NH91; first compound 8 µM): 0.888
- relative viability (EMC-BAC-2; first compound 0.08 µM): 0.989
- relative viability (EMC-BAC-2; first compound 0.253 µM): 1.03
- relative viability (EMC-BAC-2; first compound 0.8 µM): 0.986
- relative viability (EMC-BAC-2; first compound 2.53 µM): 0.841
- relative viability (EMC-BAC-2; first compound 8 µM): 0.686
- relative viability (RERF-LC-KJ; first compound 0.08 µM): 0.907
- relative viability (RERF-LC-KJ; first compound 0.253 µM): 0.844
- relative viability (RERF-LC-KJ; first compound 0.8 µM): 0.831
- relative viability (RERF-LC-KJ; first compound 2.53 µM): 0.821
- relative viability (RERF-LC-KJ; first compound 8 µM): 0.848
- relative viability (NCI-H1650; first compound 0.08 µM): 0.72
- relative viability (NCI-H1650; first compound 0.253 µM): 1.23
- relative viability (NCI-H1650; first compound 0.8 µM): 0.959
- relative viability (NCI-H1650; first compound 2.53 µM): 1.17
- relative viability (NCI-H1650; first compound 8 µM): 0.933
- relative viability (COR-L 105; first compound 0.253 µM): 1.01
- relative viability (COR-L 105; first compound 0.8 µM): 0.99
- relative viability (COR-L 105; first compound 2.53 µM): 0.876
- relative viability (COR-L 105; first compound 8 µM): 0.779
- relative viability (NCI-H1734; first compound 0.08 µM): 0.77
- relative viability (NCI-H1734; first compound 0.253 µM): 0.767
- relative viability (NCI-H1734; first compound 2.53 µM): 0.883
- relative viability (NCI-H1734; first compound 8 µM): 0.834
- relative viability (LCLC-97TM1; first compound 0.08 µM): 0.926
- relative viability (LCLC-97TM1; first compound 0.253 µM): 1.03
- relative viability (LCLC-97TM1; first compound 0.8 µM): 0.823
- relative viability (LCLC-97TM1; first compound 2.53 µM): 0.852
- relative viability (LCLC-97TM1; first compound 8 µM): 0.789
- relative viability (SK-MES-1; first compound 0.08 µM): 0.614
- relative viability (SK-MES-1; first compound 0.253 µM): 0.955
- relative viability (SK-MES-1; first compound 0.8 µM): 1.06
- relative viability (SK-MES-1; first compound 2.53 µM): 1.06
- relative viability (SK-MES-1; first compound 8 µM): 0.94
- relative viability (NCI-H2126; first compound 0.08 µM): 1.39
- relative viability (NCI-H2126; first compound 0.253 µM): 1.14
- relative viability (NCI-H2126; first compound 0.8 µM): 1.06
- relative viability (NCI-H2126; first compound 2.53 µM): 1.23
- relative viability (NCI-H2126; first compound 8 µM): 1.13

— the supplement of paper PMC10307832
